{"source": "patent US20240400572A1", "about": "“COMPOUNDS AND METHODS FOR TREATING CANCERS THAT ARE MGMT DEFICIENT REGARDLESS OF MMR STATUS” (Yale University, priority 2021, published 2024)", "key": {"[1]": {"test_system": "HCT116 MLH1−/− cells and HCT116+Chr3 cells", "experiment": "Short-term cell viability assay with or without O^6BG", "type": "cell-based, human", "source_text": "(§1) FIGS. Z2A-Z2H. […] (FIG. Z2A) IC50 values derived from short-term viability assays in LN229 MGMT+/−, MMR+/− cells treated with TMZ (1a) derivatives. ^aMGMT TI (therapeutic index)=IC50 (MGMT+/MMR+) divided by IC50 (MGMT−/MMR+). ^bMMR RI (resistance index)=IC50 (MGMT−/MMR−) divided by IC50 (MGMT−/MMR+). (FIG. Z2B) Short-term viability assay curves for TMZ (1a), CCNU (14), KL-85 (4b), and KL-50 (4a) in LN229 MGMT+/−, MMR+/− cells. (FIG. Z2C) Clonogenic survival curves for TMZ (1a) in LN229 MGMT+/−, MMR+/− cells, with representative images of wells containing 1000 plated cells treated with 30 μM TMZ (1a). (FIG. Z2D) Clonogenic survival curves for KL-50 (4a) in LN229 MGMT+/−, MMR+/− cells, with representative images of wells containing 1000 plated cells treated with 30 μM KL-50 (4a). (FIG. Z2E) Short-term viability assay curves for TMZ (1a) in DLD1 MSH6-deficient cells pre-treated with 0.01% DMSO control (CTR) or 10 μM O^6BG (+O^6BG) for 1 h prior to TMZ (1a) addition to deplete MGMT. (FIG. Z2F) Short-term viability assay curves for KL-50 (4a) in DLD1 MSH6-deficient cells pre-treated with 0.01% DMSO control (CTR) or 10 μM O^6BG (+O^6BG) for 1 h prior to KL-50 (4a) addition. (FIG. Z2G) Short-term viability assay curves for TMZ (1a) in HCT116 MLH1−/− cells or HCT116 cells complemented with chromosome 3 carrying wildtype MLH1 (+Chr3) pre-treated with 0.01% DMSO control or 10 μM O^6BG (+O^6BG) for 1 h prior to TMZ (1a) addition. (FIG. Z2H) Short-term viability assay curves for KL-50 (4a) in HCT116 MLH1−/− cells or HCT116 cells complemented with chromosome 3 carrying wildtype MLH1 (+Chr3) pre-treated with 0.01% DMSO control or 10 μM O^6BG (+O^6BG) for 1 h prior to KL-50 (4a) addition. For (FIG. Z2B), (FIG. Z2C), (FIG. Z2D), (FIG. Z2E), (FIG. Z2F), (FIG. Z2G), and (FIG. Z2H), points, mean; error bars, SD; n≥3 technical replicates.\n(§2) Short-term Cell Viability Assay. Cells were seeded in 96-well plates at 1000 or 2000 cells/well and allowed to adhere at 23° C. for 60 min and then incubated overnight at 37° C. Cells were treated with indicated concentrations of compounds in triplicate for 4-6 days prior to fixation with 3.7% paraformaldehyde and nuclear staining with 1 μg/mL Hoechst 33342 dye. Cells were imaged on a Cytation 3 imaging reader (BioTek) and quantified using CellProfiler software."}, "[2]": {"test_system": "DLD1 MSH6-deficient cells", "experiment": "Short-term cell viability assay with or without O^6BG", "type": "cell-based, human", "settings": "DLD1 (MGMT+, MSH6−), with or without 10 μM O^6BG-induced MGMT depletion", "source_text": "as §1, §2"}, "[3]": {"experiment": "Pharmacokinetic study, plasma", "type": "in vivo", "settings": "male C57BL/6 mice", "experimental": "Compound KL50 dosing solution: 3.39% DMSO+96.61% (10% HP-β-CD in saline) at 2 mg/mL; • 1) Weigh 17.39 mg of compound KL50 into a clean tube. • 2) Add 0.295 mL DMSO into the tube containing the compound. • 3) Vortex the tube for 3 min and sonicate it for 4 min. • 4) Add 8.400 mL 10% HP-β-CD in saline into the tube and vortex the tube for 3 min. Compound I-1 dosing solution: 3.39% DMSO+96.61% (10% HP-β-CD in saline) at 2 mg/mL; • 1) Weigh 16.86 mg Compound I-1 into a clean tube. • 2) Add 0.286 mL DMSO into the tube containing the compound. • 3) Vortex the tube for 3 min and sonicate it for 4 min. • 4) Add 8.144 mL 10% HP-β-CD in saline into the tube and vortex the tube for 3 min.\nThe in-vivo pharmacokinetic and brain distribution study was conducted under the following parameters. Twenty seven C57BL/6 male mice were purchased from Shanghai JiHui Laboratory Animal Co. LTD. Each mouse weighted from 16 g to 17 g. The mice were fasted overnight and fed post 4 hr sampling. Compound KL50 and Compound I-I were administered via oral gavage (PO) at a dose of 20 mg/kg (10 mL/kg). After dosing, sampling was completed at 0.083, 0.167, 0.333, 0.5, 0.75, 1, 2, 4 and 8 hr post dose, with three mice sacrificed at each time point.\nTerminal bleeding for plasma and brain was completed at each time point. Approximately 110 μL blood per time point was collected into a K2EDTA tube via the facial vein. The blood sample was put on wet ice and centrifuged to obtain plasma sample (2000 g, 5 min under 4° C.) within 15 minutes. Plasma samples were acidified with 6 μL of formic acid for every 54 μL of plasma. After blood collection, a mid-line incision was made in the animal's scalp and the skin was retracted. The skull overlying the brain was removed. Then, the whole brain was collected, rinsed with cold saline, dried on filtrate paper, and weighed; and then snap frozen by placing the brain into dry-ice. Plasma samples were stored at approximately −70° C. until analysis. Brain tissue was homogenized with 3 volumes (v/w) of PBS (1% FA) and then analyzed with LC-MS/MS. The concentration of study drug was corrected with a dilution factor of four as following: Brain concentration=brain homogenate conc.×4, assuming 1 g wet brain tissue equals to 1 mL"}}, "note": "Where “and” joins values, the source holds several entries; their conditions need not be identical. Identical values can stand only once. Like-named read-outs stand apart in the source and are kept apart here.", "data": [{"smiles": "NC(=O)c1ncn2c(=O)n(CCF)nnc12", "note": "[KL-50, 3-(2-fluoroethyl)-4-oxo-3H,4H-imidazo[4,3-d][1,2,3,5]tetrazine-8-carboxamide]", "values": [{"measurement": "cytotoxicity in HCT116 MLH1−/− cells (in words)", "setting": "[1]; MLH1-deficient, with or without 10 μM O^6BG", "result": "selective tumor cell killing specifically in the setting of O^6BG-induced MGMT suppression"}, {"measurement": "cytotoxicity in HCT116+Chr3 cells (in words)", "setting": "[1]; complemented with chromosome 3 containing MLH1, with or without 10 μM O^6BG", "result": "selective tumor cell killing specifically in the setting of O^6BG-induced MGMT suppression"}, {"measurement": "cytotoxicity in DLD1 cells (in words)", "setting": "[2]", "result": "toxic to these cells, but only after O^6BG-induced MGMT depletion"}, {"measurement": "plasma Concentration, Individuals", "setting": "[3]; PO 20 mg/kg, 0.083 hr, 20 mg/kg", "result": "25600 ng/mL and 28000 ng/mL"}, {"measurement": "plasma Concentration, Individuals", "setting": "[3]; PO 20 mg/kg, 0.167 hr, 20 mg/kg", "result": "22900 ng/mL and 18100 ng/mL"}, {"measurement": "plasma Concentration, Individuals", "setting": "[3]; PO 20 mg/kg, 0.333 hr, 20 mg/kg", "result": "14500 ng/mL and 20900 ng/mL"}, {"measurement": "plasma Concentration, Individuals", "setting": "[3]; PO 20 mg/kg, 0.5 hr, 20 mg/kg", "result": "12400 ng/mL and 15300 ng/mL"}, {"measurement": "plasma Concentration, Individuals", "setting": "[3]; PO 20 mg/kg, 0.75 hr, 20 mg/kg", "result": "11000 ng/mL and 10200 ng/mL"}, {"measurement": "plasma Concentration, Individuals", "setting": "[3]; PO 20 mg/kg, 1 hr, 20 mg/kg", "result": "7340 ng/mL and 12300 ng/mL"}, {"measurement": "plasma Concentration, Individuals", "setting": "[3]; PO 20 mg/kg, 2 hr, 20 mg/kg", "result": "2750 ng/mL and 4570 ng/mL"}, {"measurement": "plasma Concentration, Individuals", "setting": "[3]; PO 20 mg/kg, 4 hr, 20 mg/kg", "result": "1590 ng/mL and 796 ng/mL"}, {"measurement": "plasma Concentration, Individuals", "setting": "[3]; PO 20 mg/kg, 8 hr, 20 mg/kg", "result": "305 ng/mL and 104 ng/mL and 185 ng/mL"}, {"measurement": "concentration at 0.083 hr", "setting": "[3]; male, C57BL/6, mouse, plasma, po, 20 mg/kg, 0.083 hr, N=3, read-out: plasma Concentration, Mean", "result": 25300, "unit": "ng/mL"}, {"measurement": "concentration at 0.083 hr", "setting": "[3]; male, C57BL/6, mouse, plasma, po, 20 mg/kg, 0.083 hr, read-out: plasma Concentration, Individuals", "result": 22300, "unit": "ng/mL"}, {"measurement": "concentration at 0.167 hr", "setting": "[3]; male, C57BL/6, mouse, plasma, po, 20 mg/kg, 0.167 hr, N=3, read-out: plasma Concentration, Mean", "result": 21800, "unit": "ng/mL"}, {"measurement": "concentration at 0.167 hr", "setting": "[3]; male, C57BL/6, mouse, plasma, po, 20 mg/kg, 0.167 hr, read-out: plasma Concentration, Individuals", "result": 24500, "unit": "ng/mL"}, {"measurement": "concentration at 0.333 hr", "setting": "[3]; male, C57BL/6, mouse, plasma, po, 20 mg/kg, 0.333 hr, N=3, read-out: plasma Concentration, Mean", "result": 18100, "unit": "ng/mL"}, {"measurement": "concentration at 0.333 hr", "setting": "[3]; male, C57BL/6, mouse, plasma, po, 20 mg/kg, 0.333 hr, read-out: plasma Concentration, Individuals", "result": 19000, "unit": "ng/mL"}, {"measurement": "concentration at 0.5 hr", "setting": "[3]; male, C57BL/6, mouse, plasma, po, 20 mg/kg, 0.5 hr, N=3, read-out: plasma Concentration, Mean", "result": 14000, "unit": "ng/mL"}, {"measurement": "concentration at 0.5 hr", "setting": "[3]; male, C57BL/6, mouse, plasma, po, 20 mg/kg, 0.5 hr, read-out: plasma Concentration, Individuals", "result": 14400, "unit": "ng/mL"}, {"measurement": "concentration at 0.75 hr", "setting": "[3]; male, C57BL/6, mouse, plasma, po, 20 mg/kg, 0.75 hr, N=3, read-out: plasma Concentration, Mean", "result": 10300, "unit": "ng/mL"}, {"measurement": "concentration at 0.75 hr", "setting": "[3]; male, C57BL/6, mouse, plasma, po, 20 mg/kg, 0.75 hr, read-out: plasma Concentration, Individuals", "result": 9590, "unit": "ng/mL"}, {"measurement": "concentration at 1 hr", "setting": "[3]; male, C57BL/6, mouse, plasma, po, 20 mg/kg, 1 hr, N=3, read-out: plasma Concentration, Mean", "result": 10000, "unit": "ng/mL"}, {"measurement": "concentration at 1 hr", "setting": "[3]; male, C57BL/6, mouse, plasma, po, 20 mg/kg, 1 hr, read-out: plasma Concentration, Individuals", "result": 10500, "unit": "ng/mL"}, {"measurement": "concentration at 2 hr", "setting": "[3]; male, C57BL/6, mouse, plasma, po, 20 mg/kg, 2 hr, N=3, read-out: plasma Concentration, Mean", "result": 3300, "unit": "ng/mL"}, {"measurement": "concentration at 2 hr", "setting": "[3]; male, C57BL/6, mouse, plasma, po, 20 mg/kg, 2 hr, read-out: plasma Concentration, Individuals", "result": 2580, "unit": "ng/mL"}, {"measurement": "concentration at 4 hr", "setting": "[3]; male, C57BL/6, mouse, plasma, po, 20 mg/kg, 4 hr, N=3, read-out: plasma Concentration, Mean", "result": 1150, "unit": "ng/mL"}, {"measurement": "concentration at 4 hr", "setting": "[3]; male, C57BL/6, mouse, plasma, po, 20 mg/kg, 4 hr, read-out: plasma Concentration, Individuals", "result": 1060, "unit": "ng/mL"}, {"measurement": "concentration at 8 hr", "setting": "[3]; male, C57BL/6, mouse, plasma, po, 20 mg/kg, 8 hr, N=3", "result": 198, "unit": "ng/mL"}, {"measurement": "AUC(0-inf)", "setting": "[3]; mouse, plasma, PO 20 mg/kg", "result": 28800, "unit": "ng·h/mL"}, {"measurement": "AUC(0-t)", "setting": "[3]; mouse, plasma, PO 20 mg/kg", "result": 28400, "unit": "ng·h/mL"}, {"measurement": "Cmax", "setting": "[3]; mouse, plasma, PO 20 mg/kg", "result": 25300, "unit": "ng/mL"}, {"measurement": "MRT inf", "setting": "[3]; mouse, plasma, PO 20 mg/kg", "result": 1.47, "unit": "h"}, {"measurement": "Tmax", "setting": "[3]; mouse, plasma, PO 20 mg/kg", "result": 4.98, "unit": "min"}, {"measurement": "half-life", "setting": "[3]; mouse, plasma, PO 20 mg/kg", "result": 89.4, "unit": "min"}]}]}
